Reference: patent US5436254A, “Carbostyril derivatives” (Otsuka Pharmaceutical Company, Ltd., priority 1989, dated 1995)

Test system: increase of diastolic pressure caused by Arg-vasopressin
Experiment: Anti-vasopressor activity in vivo (pith rat, increase of diastolic pressure by Arg-vasopressin)
Parameters: species or system male SD rat
Conditions: iv, read-out: ED50 (dose required to reduce the increase of diastolic pressure caused by Arg-vasopressin to 50 % of its control value)

Structure (SMILES)	ED50
COc1ccc(C(=O)N2CCC(N3C(=O)CCc4ccccc43)CC2)c(OC)c1 [Example 47, 1-[1-(2,4-Dimethoxybenzoyl)-4-piperidinyl]-3,4-dihydrocarbostyril]	0.4 mg/kg

Biological target: V1 receptor (Rattus norvegicus, UniProt P30560)
Experiment: biochemical
Format: binding
Conditions: not given

Chain of V1 receptor (P30560 whole entry): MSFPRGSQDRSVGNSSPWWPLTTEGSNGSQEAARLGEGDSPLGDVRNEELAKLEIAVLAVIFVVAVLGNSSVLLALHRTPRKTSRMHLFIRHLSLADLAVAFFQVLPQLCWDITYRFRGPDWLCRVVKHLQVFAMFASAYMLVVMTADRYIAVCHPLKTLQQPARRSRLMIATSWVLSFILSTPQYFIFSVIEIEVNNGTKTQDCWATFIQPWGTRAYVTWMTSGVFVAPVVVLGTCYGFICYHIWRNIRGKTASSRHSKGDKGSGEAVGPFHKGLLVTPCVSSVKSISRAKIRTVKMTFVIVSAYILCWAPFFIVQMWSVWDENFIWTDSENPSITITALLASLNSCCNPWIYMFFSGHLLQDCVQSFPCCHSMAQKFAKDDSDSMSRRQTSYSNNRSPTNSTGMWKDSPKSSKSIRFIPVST

Structure (SMILES)	IC50
COc1ccc(C(=O)N2CCC(N3C(=O)CCc4ccccc43)CC2)c(OC)c1 [Example 47, 1-[1-(2,4-Dimethoxybenzoyl)-4-piperidinyl]-3,4-dihydrocarbostyril]	100 nM
CCN(CC(O)CCCCOc1ccc(C(=O)N2CCC(N3C(=O)CCc4ccccc43)CC2)cc1)CC1CCCCO1 (centres unmarked) [Example 218, 1-{1-[4-(5-Hydroxy-6-[N-ethyl-N-(2-tetrahydropyranylmethyl)amino]hexyloxy)benzoyl]-4-piperidinyl}-3,4-dihydrocarbostyril]	44 nM
COc1cccc(CNCC(O)CCCCOc2ccc(C(=O)N3CCC(N4C(=O)CCc5ccccc54)CC3)cc2)c1 (centres unmarked) [Example 298, 1-{1-(4-[5-Hydroxy-6-(3-methoxybenzylamino)hexyloxy]benzoyl)-4-piperidinyl}-3,4-dihydrocarbostyril]	65 nM
CCN(CC)CCCCCCOc1ccc(C(=O)N2CCC(N3C(=O)CCc4c(C)cccc43)CC2)cc1 [Example 307, 5-Methyl-1-{1-[4-(6-diethylaminohexyloxy)benzoyl]-4-piperidinyl}-3,4-dihydrocarbostyril]	23 nM
CCN(CC)CCCCCCOc1ccc(C(=O)N2CCC(N3C(=O)CCc4ccccc43)CC2)cc1 [Example 213, 1-{1-[4-(6-Diethylaminohexyloxy)benzoyl]-4-piperidinyl}-3,4-dihydrocarbostyril]	59 nM
Nc1ccc(S(=O)(=O)CCCCCOc2ccc(C(=O)N3CCC(N4C(=O)CCc5ccccc54)CC3)cc2)cc1 [Example 286, 1-{1-(4-[5-(4-Aminophenylsulfonyl)pentyloxy]benzoyl)-4-piperidinyl}-3,4-dihydrocarbostyril]	150 nM
COc1ccc(N2CCN(CCCOc3ccc(C(=O)N4CCC(N5C(=O)CCc6ccccc65)CC4)cc3)CC2)cc1 [Example 86, 1-{1-[4-(3-[4-(4-Methoxyphenyl)-1-piperazinyl]propoxy)benzoyl]-4-piperidinyl)-3,4-dihydrocarbostyril]	570 nM
CCCC(NC(C)=O)C(=O)NCCCOc1ccc(C(=O)N2CCC(N3C(=O)CCc4ccccc43)CC2)cc1 (centres unmarked) [Example 182, 1-{1-[4-(3-[2-(Acetylamino)valerylamino]propoxy)benzoyl]-4-piperidinyl}-3,4-dihydrocarbostyril]	120 nM
O=C(c1ccc(OCCCCCCO)cc1)N1CCC(N2C(=O)CCc3ccccc32)CC1 [Example 128, 1-{1-[4-(6-Hydroxyhexyloxy)benzoyl]-4-piperidinyl}-3,4-dihydrocarbostyril]	230 nM

Same assay, conditions: [H]3-Arg-vasopressin 2×10^-10 M, rat liver plasma membrane, 37° C., 10 minutes, pH 8.0

Structure (SMILES)	IC50
O=C(c1ccc(OCCCCCn2ccnc2)cc1)N1CCC(N2C(=O)CCc3ccccc32)CC1 [Example 236]	260 nM
